Results taken from patent publication US10738061B2, “Inhibitors of RAD52 recombination protein and methods using same” (Drexel University, priority 2015, dated 2020).

How the values were obtained:
[1] = tested on: BCR-ABL1-positive BRCA1-deficient 32Dc13 murine hematopoietic cell line that expresses GFP-RAD52; assay: GFP-RAD52 foci formation in response to cisplatin; assay type: cell-based; details: compound 2.5 μM
Description: GFP-RAD52 foci formation was measured in BCR-ABL1-positive BRCA1-deficient 32Dc13 murine hematopoietic cell line that expresses GFP-RAD52 (Cramer-Morales et al., 2013, Blood 122, 1293-1304). RAD51 foci formation was measured in parental 32Dc13.
Both cell lines were cultured in IMDM plus 10% FBS. […] After 4 h of incubation, the cells were treated with 3 μg/mL cisplatin for 16 h. Following cisplatin treatment, cytospins were prepared using polylysine coated slides (Thermo Scientific). DNA was counterstained with DAPI. To detect RAD51 foci, cells were stained with an anti-RAD51 antibody (Thermo Scientific), followed by a secondary antibody conjugated with AlexaFluor 594. RAD51 and GFP-RAD52 foci were visualized with an inverted Olympus IX70 fluorescence microscope equipped with a Cooke Sensicam QE camera (The Cooke Co., Auburn Hills, Mich., USA). Images from 25-60 cells/group were processed using SlideBook 3.0 (Intelligent Imaging Innovation).
In response to DNA damage, RAD52 accumulates in the nucleus forming distinct structures known as foci (Essers et al., 2002, EMBO J. 21, 2030-2037; Liu et al., 2000, EMBO Rep 1, 85-90). The foci represent RAD52 complexes with DNA repair intermediates. Inhibitors of RAD52 may decrease RAD52 foci formation by disrupting its interaction with DNA substrates.

[2] = tested on: BRCA1/2-deficient cell lines; assay: Growth of BRCA1/2-deficient cell lines (summary over tested lines); assay type: cell-based, Human
Description: (§1) BxPC3 cells were kept in RPMI 1640 (ATCC) media supplemented with 10% FBS (Gibco). Capan-1/BxPC3 Capan-1 cells were kept in IMDM (ATCC) media containing 20% FBS (GIBCO). […] cells were kept in 48.5% RPMI1640 (ATCC), 48.5% MEGM (Clonetics/Lonza, MEGM kit, CC-3150) and 3% FBS (GIBCO) respectively. Cells in log-phase were harvested and 100 μl cell suspensions were replated in a 96-well plate with a final density of 4000 cells/well. After overnight growth, cells were treated with indicated concentrations of compounds. Media containing the invariant concentration of compounds were refreshed every 3 days until cells were finally lysed by 30 μl/well of Promega CellTiter-Glo reagents and read on a Promega GloMax 96 reader on day 10 (9 days exposure).
as §1, with “(Gibco);” for “(Gibco). Capan-1/BxPC3”, “(GIBCO);” for “(GIBCO).”, “exposure). Promega CellTiter-Glo protocol is available on the web: www dot promega dot com/resources/protocols/technical-bulletins/0/celltiter-glo-luminescent-cell-viability-assay-protocol/” for “exposure).”
MDA-MB-436 cells were cultured in RPMI+10% FBS. BRCA-proficient and BRCA-deficient cells were plated on day 0 in triplicate at 5,000 cells/well. […] Cells were counted on day 4 on a hemocytometer, using Trypan Blue exclusion, and immediately were plated in a clonogenic assay at a density of 500 cells/well in a 6 well plate, in RPMI+10% FBS. […]

[3] = tested on: salmon sperm DNA; assay: Acridine orange displacement assay for DNA binding
Description: The selected compounds were tested their abilities to bind DNA to rule out DNA binding as an undesired mechanism of action. The compounds in varied concentrations were added into 30 μl reaction mixtures containing 50 nM acridine orange and 6 μg/ml salmon sperm DNA, 10 mM HEPES, pH 7.5; 1 mM EDTA pH 7.5; 100 mM NaCl in 384-well plates, and the reactions were incubated at room temperature for 20 min followed by fluorescence polarization measurement using an EnVision (Perkin Elmer) equipped with a 480 nm excitation filter and 535 nm S and P emission filters with a D505 FP/D535 dichroic mirror. Mitoxantrone (10 μM) was used as a positive control. The S and P values are processed with the standard fluorescence polarization calculation formula (mP=1000*(S-G*P)/(S+G*P) where G is the G-factor and is approximately 1.

DNA binding [3]: did not bind DNA
SMILES: COc1ccc(OC)c(Nc2nc(NCCCO)c3ccccc3n2)c1 [D-G23, 3-((2-((2,5-dimethoxyphenyl)amino)quinazolin-4-yl)amino)propan-1-ol]
fraction of cells with RAD52 foci (>5 foci) ([1]; cisplatin-treated, without inhibitor 38.7±10%): 19±0.4%
fraction of cisplatin-treated cells without foci ([1]; without inhibitor 48.4±6.2%): 57.6±0.5%
preferential inhibition of BRCA1/2-deficient cell lines (summary) [2]: preferentially inhibited at least two BRCA1/2-deficient cell lines
